Data published in patent publication US20240116985A1, “STAPLED PEPTIDES AND METHODS THEREOF” (priority 2020, published 2024).
pIC50: −log10 of the molar value. Like-named read-outs stand apart in the source and are kept apart here.

Key:
[1] = molecular target: T1, beta-catenin/TCF4 engagement (Homo sapiens, UniProt P35222); test: Nano-BRET target engagement assay (B-cat-Halo & TCF4-Luc in HEK293 cells); type: cell-based; conditions: read-out: NanoBRET Abs IC50
T1 construct: expressed in transfected cells; host or cells: HEK293
T1 sequence (P35222 1-781): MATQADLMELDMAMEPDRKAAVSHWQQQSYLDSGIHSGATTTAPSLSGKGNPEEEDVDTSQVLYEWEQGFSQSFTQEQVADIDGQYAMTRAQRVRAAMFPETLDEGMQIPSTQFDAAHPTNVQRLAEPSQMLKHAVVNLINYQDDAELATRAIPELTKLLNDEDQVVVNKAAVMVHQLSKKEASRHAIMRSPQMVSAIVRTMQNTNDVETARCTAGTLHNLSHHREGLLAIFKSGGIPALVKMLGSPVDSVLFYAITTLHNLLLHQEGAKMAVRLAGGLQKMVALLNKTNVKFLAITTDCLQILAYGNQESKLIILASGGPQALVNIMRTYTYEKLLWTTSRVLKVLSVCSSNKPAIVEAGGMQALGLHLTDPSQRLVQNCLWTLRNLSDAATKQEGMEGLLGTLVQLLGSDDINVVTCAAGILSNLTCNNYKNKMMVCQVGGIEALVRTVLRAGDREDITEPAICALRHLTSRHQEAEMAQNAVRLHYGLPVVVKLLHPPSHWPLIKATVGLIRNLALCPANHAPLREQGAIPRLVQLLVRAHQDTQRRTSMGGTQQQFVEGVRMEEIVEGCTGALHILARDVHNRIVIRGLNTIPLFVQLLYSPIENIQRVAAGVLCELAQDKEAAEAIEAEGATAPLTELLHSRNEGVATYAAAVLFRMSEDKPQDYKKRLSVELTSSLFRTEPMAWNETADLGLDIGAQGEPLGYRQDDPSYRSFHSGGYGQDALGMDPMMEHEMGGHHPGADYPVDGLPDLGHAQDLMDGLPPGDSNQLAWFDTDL

[2] = molecular target: T2, full-length beta-Catenin (Uniprot ID P35222) (Homo sapiens, UniProt P35222); test: Fluorescence polarization IC50 (beta-catenin / 5FAM-TCF4 10-53 competition); type: binding; conditions: fluorescence polarization; read-out: beta-Catenin FP IC50
T2 construct: 10 nM full-length beta-Catenin (Uniprot ID P35222)
T2 sequence (P35222 1-781): T1 sequence (P35222 1-781)

SMILES	pIC50 ([1]; absolute IC50)	pIC50 [2]	pIC50 [1]
COC(=O)C[C@@H]1NC(=O)[C@]2(CC=CCCCC3(CCCC=CCCCOC(=O)N4CC[C@@](C(=O)N[C@@H](Cc5ccsc5)C(=O)N[C@@H](Cc5csc6ccccc56)C(=O)N[C@@H](CCC(N)=O)C(N)=O)(C4)NC(=O)[C@H](CC(C)C)NC(=O)[C@H](Cc4ccccc4)NC(=O)[C@H](C)NC(=O)[C@H](C)NC(=O)[C@H](CC(=O)O)NC(=O)[C@H](CC(=O)O)NC3=O)NC(=O)[C@H](CC(C)(C)C)NC1=O)CCCN2C(C)=O (stereo partly drawn) [I-2359, Ac-PL3-[Me]AspE-Npg-B5-Asp-Asp-Ala-Ala-Phe-Leu-PyrS2-3Thi-BztA-Gln-NH2]	< 4.70	6.37	–
CCNC(=O)CC[C@H](NC(=O)[C@H](Cc1csc2ccccc12)NC(=O)[C@H](Cc1ccccc1C(F)(F)F)NC(=O)[C@]12CCN(C1)C(=O)OCCCC=CCCCC1(CCCC=CC[C@]3(CCCN3C(C)=O)C(=O)N[C@@H](CC(=O)O)C(=O)N[C@@H](CC(C)(C)C)C(=O)N1)C(=O)N[C@@H](CC(=O)O)C(=O)N[C@@H](Cc1cccc(C(=O)O)c1)C(=O)N[C@@H](CCC(=O)NCC)C(=O)N[C@@H](C)C(=O)N[C@@H](Cc1ccccc1)C(=O)N[C@@H](CC(C)C)C(=O)N2)C(N)=O (stereo partly drawn) [I-2299, Ac-PL3-Asp-Npg-B5-Asp-3COOHF-[NHEt]GlnR-Ala-Phe-Leu-PyrS2-2F3MeF-BztA-NHEt]GlnR-NH2]	5.28	8.15	–
CC(=O)N1CCC[C@]12CC=CCCCC1(CCCC=CCCCOC(=O)N3CC[C@@](C(=O)N[C@@H](Cc4ccccc4Cl)C(=O)N[C@@H](Cc4csc5ccccc45)C(=O)N[C@@H](CCC(N)=O)C(N)=O)(C3)NC(=O)[C@H](CC(N)=O)NC(=O)[C@H](Cc3ccccc3)NC(=O)[C@H](C)NC(=O)[C@H](C)NC(=O)[C@H](CC(=O)O)NC(=O)[C@H](CC(=O)O)NC1=O)NC(=O)[C@H](CC(C)(C)C)NC(=O)[C@H](CC(=O)S)NC2=O (stereo partly drawn) [I-1721, Ac-PL3-AspSH-Npg-B5-Asp-Asp-Ala-Ala-Phe-Asn-PyrS2-2C1F-BztA-Gln-NH2]	< 4.70	6.86	–
CCCC[C@@H]1NC(=O)[C@H](Cc2ccccc2)NC(=O)[C@H](C)NC(=O)C(C)(C)NC(=O)[C@H](Cc2cccc(C(=O)O)c2)NC(=O)[C@H](CC(=O)O)NC(=O)C2(CCCC=CCCCOC(=O)N3CC[C@@](C(=O)N[C@@H](Cc4ccsc4)C(=O)N[C@@H](Cc4csc5ccccc45)C(=O)N[C@@H](CCC(=O)NCC)C(N)=O)(C3)NC1=O)CCCC=CC[C@]1(CCCN1C(C)=O)C(=O)N[C@@H](CC(=O)O)C(=O)N[C@@H](CC(C)(C)C)C(=O)N2 (stereo partly drawn) [I-2552, Ac-PL3-Asp-Npg-B5-Asp-3COOHF-Aib-Ala-Phe-nLeu-PyrS2-3Thi-BztA-NHEt]GlnR-NH2]	4.98	7.92	–
CCCC[C@@H]1NC(=O)[C@H](CC(=O)O)NC(=O)[C@]2(CC=CCCCC3(CCCC=CCCCOC(=O)N4CC[C@@](C(=O)N[C@@H](Cc5ccccc5)C(=O)N[C@@H](Cc5csc6ccccc56)C(=O)N[C@@H](CCC(N)=O)C(N)=O)(C4)NC(=O)[C@H](CC(C)C)NC(=O)[C@H](Cc4ccccc4)NC(=O)[C@H](C)NC(=O)[C@H](C)NC(=O)[C@H](CC(=O)O)NC(=O)[C@H](CC(=O)O)NC3=O)NC1=O)CCCN2C(C)=O (stereo partly drawn) [I-1403, Ac-PL3-Asp-nLeu-B5-Asp-Asp-Ala-Ala-Phe-Leu-PyrS2-Phe-BztA-Gln-NH2]	4.54	8.22	–
CC(=O)N1CCC[C@]12CC=CCCCC1(CCCC=CCCCOC(=O)N3CC[C@@](C(=O)N[C@@H](Cc4ccsc4)C(=O)N[C@@H](Cc4csc5ccccc45)C(=O)N[C@@H](CC(N)=O)C(N)=O)(C3)NC(=O)[C@H](CC(C)C)NC(=O)[C@H](Cc3ccccc3)NC(=O)[C@H](C)NC(=O)[C@H](C)NC(=O)[C@H](CC(=O)O)NC(=O)[C@H](CC(=O)O)NC1=O)NC(=O)[C@H](CC(C)(C)C)NC(=O)[C@H](CC(=O)O)NC2=O (stereo partly drawn) [I-1492, Ac-PL3-Asp-Npg-B5-Asp-Asp-Ala-Ala-Phe-Leu-PyrS2-3Thi-BztA-Asn-NH2]	5.14	8.30	–
CC(=O)N1CCC[C@]12CC=CCCCC1(CCCC=CCCCOC(=O)N3CC[C@@](C(=O)N[C@@H](Cc4ccsc4)C(=O)N[C@@H](Cc4cccc(Cl)c4)C(=O)N[C@@H](CCC(N)=O)C(N)=O)(C3)NC(=O)[C@H](CC(C)C)NC(=O)[C@H](Cc3ccccc3)NC(=O)[C@H](C)NC(=O)[C@H](C)NC(=O)[C@H](Cc3cccc(C(=O)O)c3)NC(=O)[C@H](CC(=O)O)NC1=O)NC(=O)[C@H](CC(C)(C)C)NC(=O)[C@H](CC(=O)O)NC2=O (stereo partly drawn) [I-2224, Ac-PL3-Asp-Npg-B5-Asp-3COOHF-Ala-Ala-Phe-Leu-PyrS2-3Thi-3C1F-Gln-NH2]	4.85	7.85	–
CC(=O)N1CCC[C@]12CC=CCCCC1(CCCC=CCCCOC(=O)N3CC[C@@](C(=O)N[C@@H](Cc4ccsc4)C(=O)N[C@@H](Cc4csc5ccccc45)C(=O)N[C@@H](CCO)C(N)=O)(C3)NC(=O)[C@H](CC(C)C)NC(=O)[C@H](Cc3ccccc3)NC(=O)[C@H](C)NC(=O)[C@H](C)NC(=O)[C@H](CC(=O)O)NC(=O)[C@H](CC(=O)O)NC1=O)NC(=O)[C@H](Cc1ccccc1)NC(=O)[C@H](CC(=O)O)NC2=O (stereo partly drawn) [I-1510, Ac-PL3-Asp-Phe-B5-Asp-Asp-Ala-Ala-Phe-Leu-PyrS2-3Thi-BztA-Hse-NH2]	4.50	8.00	–
CC(=O)N1CCC[C@]12CC=CCCCC1(CCCC=CCCCOC(=O)N3CC[C@@](C(=O)N[C@@H](Cc4ccsc4)C(=O)N[C@@H](Cc4csc5ccccc45)C(=O)N[C@H](C(N)=O)C(C)C)(C3)NC(=O)[C@H](CC(C)C)NC(=O)[C@H](Cc3ccccc3)NC(=O)[C@H](C)NC(=O)[C@H](CO)NC(=O)[C@H](Cc3cccc(C(=O)O)c3)NC(=O)[C@H](CC(=O)O)NC1=O)NC(=O)[C@H](CC(C)(C)C)NC(=O)[C@H](CC(=O)O)NC2=O (stereo partly drawn) [I-2190, Ac-PL3-Asp-Npg-B5-Asp-3COOHF-Ser-Ala-Phe-Leu-PyrS2-3Thi-BztA-Val-NH2]	–	7.55	4.48
CC(=O)N1CCC[C@]12CC=CCCCC1(CCCC=CCCCOC(=O)N3CC[C@@](C(=O)N[C@@H](Cc4ccsc4)C(=O)N[C@@H](Cc4csc5ccccc45)C(=O)N[C@@H](CCC(N)=O)C(N)=O)(C3)NC(=O)[C@H](CC(C)C)NC(=O)[C@H](Cc3ccccc3)NC(=O)[C@H](C)NC(=O)[C@H](C)NC(=O)[C@H](CCN(CC(=O)O)C(=O)c3ccc(CN4CCOCC4)cc3)NC(=O)[C@H](CC(=O)O)NC1=O)NC(=O)[C@H](CC(C)(C)C)NC(=O)[C@H](CC(=O)O)NC2=O (stereo partly drawn) [I-2248, Ac-PL3-Asp-Npg-B5-Asp-[MeMorphBz]GAbu-Ala-Ala-Phe-Leu-PyrS2-3Thi-BztA-Gln-NH2]	4.67	8.10	–
CC(=O)N1CCC[C@]12CC=CCCCC1(CCCC=CCCCOC(=O)N3CC[C@@](C(=O)N[C@@H](Cc4ccsc4)C(=O)N[C@@H](Cc4csc5ccccc45)C(=O)N[C@@H](Cc4ccccc4)C(N)=O)(C3)NC(=O)[C@H](CC(C)C)NC(=O)[C@H](Cc3ccccc3)NC(=O)[C@H](C)NC(=O)[C@H](CCCCNC(C)C)NC(=O)[C@H](CN(CC(=O)O)CC(F)(F)F)NC(=O)[C@H](CC(=O)O)NC1=O)NC(=O)[C@H](CC(C)(C)C)NC(=O)[C@H](CC(=O)O)NC2=O (stereo partly drawn) [I-1761, Ac-PL3-Asp-Npg-B5-Asp-TfeGA-iPrLys-Ala-Phe-Leu-PyrS2-3Thi-BztA-Phe-NH2]	< 4.70	7.41	–
CC(=O)N1CCC[C@]12CC=CCCCC1(CCCC=CCCCOC(=O)N3CC[C@@](C(=O)N[C@@H](Cc4ccsc4)C(=O)N[C@@H](Cc4csc5ccccc45)C(=O)N[C@@H](CCC(N)=O)C(N)=O)(C3)NC(=O)[C@H](CC(C)C)NC(=O)[C@H](Cc3ccccc3)NC(=O)[C@H](C)NC(=O)[C@H](C)NC(=O)[C@H](CO)NC(=O)[C@H](CC(=O)O)NC1=O)NC(=O)[C@H](CC(C)(C)C)NC(=O)[C@H](CC(=O)O)NC2=O (stereo partly drawn) [I-1443, Ac-PL3-Asp-Npg-B5-Asp-Ser-Ala-Ala-Phe-Leu-PyrS2-3Thi-BztA-Gln-NH2]	5.02	7.62	–
CC(=O)N1CCC[C@]12CC=CCCCC1(CCCC=CCCCOC(=O)N3CC[C@@](C(=O)N[C@@H](Cc4ccsc4)C(=O)N[C@@H](Cc4csc5ccccc45)C(=O)N[C@@H](CCC(N)=O)C(N)=O)(C3)NC(=O)[C@H](CC(N)=O)NC(=O)[C@H](Cc3ccccc3)NC(=O)[C@H](C)NC(=O)[C@H](C)NC(=O)[C@H](CCC(N)=O)NC(=O)[C@H](CC(N)=O)NC1=O)NC(=O)[C@H](CC(C)(C)C)NC(=O)[C@H](CC(=O)O)NC2=O (stereo partly drawn) [I-1566, Ac-PL3-Asp-Npg-B5-Asn-Gln-Ala-Ala-Phe-Asn-PyrS2-3Thi-BztA-Gln-NH2]	< 4.70	6.64	–
CNC(=O)C[C@@H]1NC(=O)[C@H](Cc2ccccc2)NC(=O)[C@H](C)NC(=O)C(C)(C)NC(=O)[C@H]([C@@H](C)O)NC(=O)[C@H](CC(N)=O)NC(=O)C2(CCCC=CCCCOC(=O)N3CC[C@@](C(=O)N[C@@H](Cc4ccsc4)C(=O)N[C@@H](Cc4csc5ccccc45)C(=O)N[C@@H](CC(N)=O)C(N)=O)(C3)NC1=O)CCCC=CC[C@]1(CCCN1C(C)=O)C(=O)N[C@@H](CC(=O)O)C(=O)N[C@@H](CC(C)(C)C)C(=O)N2 (stereo partly drawn) [I-2497, Ac-PL3-Asp-Npg-B5-Asn-Thr-Aib-Ala-Phe-MeAsn-PyrS2-3Thi-BztA-Asn-NH2]	< 4.70	6.98	–
